Laboratory results from the supplement of paper PMC10307832.

What was measured:
Assay in all cases: relative viability (nuclei count vs DMSO), 5 days (fraction); higher = more cells survive
VE-821 + Foretinib = compound: CS(=O)(=O)c1ccc(-c2cnc(N)c(C(=O)Nc3ccccc3)n2)cc1 [VE-821] + COc1cc2c(Oc3ccc(NC(=O)C4(C(=O)Nc5ccc(F)cc5)CC4)cc3F)ccnc2cc1OCCCN1CCOCC1 [Foretinib] (partner 0.25 µM)
Summary of the method: (§1)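 After 5 days of treatment, lung cancer cells in 1536-well plates were fixed and stained in a single step (final 0.05% Triton X-100, 1% formaldehyde, 1 ug/ml Hoechst) and their nuclei counted on 4× images. Treatment had been applied by pin tool the day after seeding as one drug alone or as a fixed anchor-drug dose with five library-drug doses (not always all listed) in √10 steps. Relative viability is the nuclei count of treated wells divided by that of vehicle wells, and values are medians of duplicate plates.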

Vismodegib + Foretinib = compound: CS(=O)(=O)c1ccc(C(=O)Nc2ccc(Cl)c(-c3ccccn3)c2)c(Cl)c1 [Vismodegib] + COc1cc2c(Oc3ccc(NC(=O)C4(C(=O)Nc5ccc(F)cc5)CC4)cc3F)ccnc2cc1OCCCN1CCOCC1 [Foretinib] (partner 0.25 µM)
Summary of the method: as §1

Ruxolitinib + Luminespib = compound: N#CC[C@H](C1CCCC1)n1cc(-c2ncnc3[nH]ccc23)cn1 [Ruxolitinib] + CCNC(=O)c1noc(-c2cc(C(C)C)c(O)cc2O)c1-c1ccc(CN2CCOCC2)cc1 [Luminespib] (partner 0.01 µM)
Summary of the method: as §1

Ruxolitinib + Bortezomib = compound: N#CC[C@H](C1CCCC1)n1cc(-c2ncnc3[nH]ccc23)cn1 [Ruxolitinib] + CC(C)C[C@H](NC(=O)[C@H](Cc1ccccc1)NC(=O)c1cnccn1)B(O)O [Bortezomib] (partner 0.002 µM)
Summary of the method: as §1

| Cell Line | relative viability (VE-821 + Foretinib; first compound 0.08 µM) | relative viability (VE-821 + Foretinib; first compound 0.253 µM) | relative viability (VE-821 + Foretinib; first compound 0.8 µM) | relative viability (VE-821 + Foretinib; first compound 2.53 µM) | relative viability (VE-821 + Foretinib; first compound 8 µM) | relative viability (Vismodegib + Foretinib; first compound 0.08 µM) | relative viability (Vismodegib + Foretinib; first compound 0.253 µM) | relative viability (Vismodegib + Foretinib; first compound 0.8 µM) | relative viability (Vismodegib + Foretinib; first compound 2.53 µM) | relative viability (Vismodegib + Foretinib; first compound 8 µM) | relative viability (Ruxolitinib + Luminespib; first compound 0.08 µM) | relative viability (Ruxolitinib + Luminespib; first compound 0.253 µM) | relative viability (Ruxolitinib + Luminespib; first compound 0.8 µM) | relative viability (Ruxolitinib + Luminespib; first compound 2.53 µM) | relative viability (Ruxolitinib + Luminespib; first compound 8 µM) | relative viability (Ruxolitinib + Bortezomib; first compound 0.08 µM) | relative viability (Ruxolitinib + Bortezomib; first compound 0.253 µM) | relative viability (Ruxolitinib + Bortezomib; first compound 0.8 µM) | relative viability (Ruxolitinib + Bortezomib; first compound 2.53 µM) | relative viability (Ruxolitinib + Bortezomib; first compound 8 µM) |
| --- | --- | --- | --- | --- | --- | --- | --- | --- | --- | --- | --- | --- | --- | --- | --- | --- | --- | --- | --- | --- |
| SK-MES-1 | 0.99 | 0.989 | 0.655 | 1.02 | 0.89 | 0.865 | 0.91 | 0.961 | 0.889 | 0.918 | 0.782 | 0.84 | 0.762 | 0.652 | 0.549 | – | – | – | – | – |
| NCI-H522 | – | – | – | – | – | – | – | – | – | – | 1.14 | 1.81 | 1.25 | 0.884 | 1.64 | – | – | – | – | – |
| NCI-H1299 | 1.1 | 1.08 | 1.04 | 1 | 1 | 1.06 | 1.11 | 1.13 | 1.07 | 1.09 | – | – | – | – | – | 1 | 0.997 | 1.02 | 0.932 | 0.984 |
| NCI-H1651 | 0.72 | 0.838 | 0.662 | 0.885 | 1.02 | 0.818 | 0.604 | 0.782 | 0.739 | 0.781 | 0.883 | 0.902 | 0.979 | 0.73 | 0.726 | 0.944 | 0.923 | 0.937 | 0.794 | 0.969 |
| NCI-H661 | 0.991 | 1.04 | 0.95 | 1.08 | 0.935 | 1.07 | 1.02 | 0.99 | 0.961 | 1.09 | 0.892 | 1.01 | 0.93 | 0.94 | 0.768 | 0.66 | 0.858 | 0.998 | 0.792 | 0.908 |
| NCI-H1944 | 0.917 | 0.84 | 0.694 | 0.862 | 0.487 | 0.851 | 0.794 | 0.897 | 0.878 | 0.942 | 0.696 | 0.628 | 0.723 | 0.73 | 0.716 | – | – | – | – | – |
| NCI-H2228 | 0.945 | 0.849 | 0.946 | 0.749 | 0.567 | 0.866 | 1.02 | 0.871 | 0.769 | 1.01 | 0.131 | 0.146 | 0.118 | 0.144 | 0.148 | 1.27 | 1.11 | 1.14 | 0.957 | 1.09 |
| NCI-H1792 | – | – | – | – | – | – | – | – | – | – | 0.407 | 0.447 | 0.473 | 0.517 | 0.434 | 0.957 | 0.905 | 0.911 | 0.834 | 0.774 |
| HCC-44 | – | – | – | – | – | – | – | – | – | – | 1.02 | 1.07 | 1.2 | 0.689 | 0.527 | 0.888 | 0.944 | 0.914 | 0.933 | 0.689 |
| NCI-H358 | 0.687 | 0.598 | 0.591 | 0.896 | 0.624 | 0.677 | 0.629 | 0.797 | 0.68 | 0.782 | 0.309 | 0.238 | 0.312 | 0.362 | 0.168 | – | – | – | – | – |
| EBC-1 | 0.0973 | 0.103 | 0.0999 | 0.104 | 0.102 | 0.102 | 0.102 | 0.0802 | 0.097 | 0.105 | – | – | – | – | – | 0.592 | 0.49 | 0.597 | 0.42 | 0.361 |
| NCI-H2342 | 1.25 | 0.917 | 0.951 | 1.1 | 1 | 0.984 | 1.04 | 1.06 | 0.949 | 0.947 | 0.748 | 0.79 | 0.863 | 0.788 | 0.728 | – | – | – | – | – |
| Calu-6 | 0.94 | 0.932 | 0.821 | 0.767 | 0.753 | 0.761 | 0.837 | 0.863 | 0.852 | 0.9 | – | – | – | – | – | 1.02 | 0.93 | 1.18 | 0.921 | 0.557 |
| NCI-H1703 | 0.33 | 0.3 | 0.329 | 0.364 | 0.404 | 0.383 | 0.344 | 0.379 | 0.336 | 0.316 | – | – | – | – | – | 0.412 | 0.38 | 0.346 | 0.338 | 0.245 |
| NCI-H1623 | 0.936 | 0.816 | 0.741 | 0.867 | 0.73 | 0.805 | 0.927 | 0.914 | 0.822 | 0.864 | 0.423 | 0.431 | 0.705 | 0.526 | 0.765 | – | – | – | – | – |
| IA-LM | 1.2 | 0.957 | 1.15 | 1.04 | 1.03 | 1.2 | 1.15 | 1.28 | 1.04 | 1.2 | – | – | – | – | – | 0.998 | 0.931 | 0.971 | 0.917 | 0.61 |
| SW 900 | 0.848 | 0.997 | 0.836 | 0.916 | 0.681 | 0.743 | 0.622 | 0.761 | 0.655 | 0.857 | 0.175 | 0.181 | 0.181 | 0.154 | 0.193 | – | – | – | – | – |
| NCI-H1793 | 0.749 | 0.669 | 0.589 | 0.85 | 0.55 | – | 0.524 | 0.616 | 0.848 | 0.609 | 0.221 | 0.204 | 0.169 | 0.156 | 0.136 | – | – | – | – | – |
| NCI-H1395 | 1.05 | 1.01 | 0.826 | 0.98 | 0.828 | 0.918 | 0.873 | 0.999 | 0.961 | 1.03 | 0.89 | 0.661 | 0.863 | 0.623 | 0.592 | – | – | – | – | – |
| NCI-H2170 | 1.01 | 0.972 | 0.952 | 0.958 | 0.798 | 0.996 | 1 | 1.04 | 1.02 | 1.08 | 0.687 | 0.509 | 0.954 | 0.643 | 0.817 | – | – | – | – | – |
| A549 | 0.996 | 0.93 | 0.858 | 0.861 | 0.713 | 1.03 | 0.928 | 1.05 | 0.969 | 0.943 | – | – | – | – | – | – | – | – | – | – |
| LK-2 | 1.5 | 1.46 | 1.05 | 1.37 | 1.14 | 1.14 | 0.974 | 1.13 | 1.34 | 1.38 | 0.184 | 0.157 | 0.187 | 0.203 | 0.168 | – | – | – | – | – |
